Test results published in patent publication US20070218475A1, “Efficient drug screening for protein targets” (priority 2005, published 2007).
Where two headings read alike, the source gives them in different places.

Columns and labels:
Smo [1] = molecular target: T1, Smo (Mus musculus, UniProt P56726); assay: Fluorescence (BODIPY-cyclopamine) binding assay, Smo-expressing Cos-1 cells
T1 construct: expressed in transfected cells; host or cells: Cos-1
Procedure: (§1) For flow cytometry experiments, the cells were then trypsinized, collected by centrifugation, resuspended in phenol red-free DMEM containing 0.5% bovine calf serum, and analyzed for green fluorescence (FACScan, Beckton Dickinson). […] Curve fitting analysis was performed with Kaleidograph (Synergy Software).

SmoΔCRD = molecular target: T2, SmoΔCRD (Mus musculus, UniProt P56726, DEL68-182); assay: Fluorescence (BODIPY-cyclopamine) binding assay, Cos-1 cells expressing SmoΔCRD; settings: 150 nM KAAD-cyclopamine
T2 construct: expressed in transfected cells; host or cells: Cos-1
Description: (§2) Preparation of Smo fusion proteins and deletion mutants: Both Smo-Myc3 and SmoA1-Myc3 are C-terminally fused to three consecutive Myc epitopes. […] Smo-GFP is comprised of green fluorescent protein fused to the C-terminus of Smo, and the fluorescent proteins in SmoA1-YFP, and SmoA1-GFP are similarly fused to the C-terminus of SmoA1. All constructs were generated by PCR and verified by DNA sequencing.
as §1

SmoΔCT = molecular target: T3, SmoΔCT (Mus musculus, UniProt P56726); assay: Fluorescence (BODIPY-cyclopamine) binding assay, Cos-1 cells expressing SmoΔCT; settings: 150 nM KAAD-cyclopamine
T3 construct: expressed in transfected cells; host or cells: Cos-1
T3 sequence (P56726 33-555 limits assumed): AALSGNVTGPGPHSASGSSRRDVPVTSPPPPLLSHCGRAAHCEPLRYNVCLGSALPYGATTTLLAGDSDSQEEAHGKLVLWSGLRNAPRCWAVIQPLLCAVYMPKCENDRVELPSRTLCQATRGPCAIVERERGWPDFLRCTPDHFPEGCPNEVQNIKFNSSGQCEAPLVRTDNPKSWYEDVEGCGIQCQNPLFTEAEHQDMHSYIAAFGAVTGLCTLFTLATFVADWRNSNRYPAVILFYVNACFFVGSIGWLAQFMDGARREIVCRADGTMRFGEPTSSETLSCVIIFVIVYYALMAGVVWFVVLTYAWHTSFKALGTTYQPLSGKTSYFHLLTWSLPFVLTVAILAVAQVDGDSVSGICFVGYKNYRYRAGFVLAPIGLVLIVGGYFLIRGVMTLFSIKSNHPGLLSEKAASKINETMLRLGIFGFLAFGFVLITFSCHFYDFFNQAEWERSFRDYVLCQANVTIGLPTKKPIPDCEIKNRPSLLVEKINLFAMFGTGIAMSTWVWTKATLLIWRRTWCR
Description: as §2, §1

Smo [2] = molecular target: T1, Smo; assay: Photoaffinity labeling of Smo with 125I-labeled PA-cyclopamine; type: binding
SmoA1-GFP = molecular target: T4, SmoA1-GFP (Mus musculus, UniProt P56726, W539L); assay: Localization study of SmoA1-GFP in C3H/10T1/2 cells; type: cell-based
T4 construct: expressed in transfected cells; host or cells: C3H/10T1/2
Procedure: Localization studies of Smo and SmoA1 proteins: C3H/10T1/2 cells (ATCC) were cultured in DMEM containing 10% fetal bovine serum, 0.5 μg/ml ZnSO4 and β-mercaptoethanol (3.5 μL/500 ml DMEM) on glass coverslips (Bioptechs) in […]. […] To assess SmoA1 subcellular localization, either an ER marker (pECFP-ER; Clontech) or a Golgi marker (pECFP-Golgi; Clontech) was cotransfected with the SmoA1-YFP construct. […] Fluorescent protein illumination, detection and imaging was performed on a Zeiss inverted microscope outfitted with a Xenon light source (Lambda DG4; Sutter instruments), single or dual-pass filters (Chroma Technologies), and a cooled CCD camera (Roper Scientific). Images were acquired and processed with Metamorph software (Universal Images).

SmoA1-Myc3 = molecular target: T5, SmoA1-Myc3 (Mus musculus, UniProt P56726, W539L); assay: Endo H digestion of SmoA1-Myc3 (glycosylation state) in Cos-1 cells; type: cell-based; settings: 5 μM KAAD-cyclopamine
T5 construct: expressed in transfected cells; host or cells: Cos-1
Procedure: Endo H digestion of Smo proteins: Cos-1 cells were cultured in DMEM containing 10% fetal bovine serum in 6-well plates and transfected with Smo-Myc3 or SmoA1-Myc3 expression vectors (1 μg/well). One day after transfection, 5 μM KAAD-cyclopamine (in MeOH, final concentration 0.1%) was added to a well of the SmoA1-Myc3-expressing cells. Two days after transfection, each well of cells washed twice with PBS and lysed with 300 μL of RIPA buffer (50 mM Tris-Cl, pH 7.5, 150 mM NaCl, 1% NP-40, 0.5% sodium deoxycholate, 1 mM EDTA, 1 (μg/ml leupeptin, 1 μg/ml aprotinin, 0.2 mM phenylmethylsulfonyl fluoride). Cell lysates were centrifuged at 20,000×g for 15 minutes at 4° C., and the supernatant was then centrifuged at 100,000×g for 30 minutes. The supernatant of the second centrifugation was then used for glycosidase treatments and/or SDS-PAGE. For glycosidase treatments, 45 μL of cell lysate was denatured in 0.5% SDS, 1% β-mercaptoethanol for 10 minutes at room temperature and then incubated in 50 mM sodium citrate (pH 5.5) and 50 units of endoglycosidase-H (New England Biolabs) at 37° C. overnight. The anti-Myc monoclonal antibody was used for western blotting, following SDS-PAGE separation and protein transfer to nitrocellulose.

Shh signaling [3] = settings: read-out: IC50 in the Shh-LIGHT2 assay, Taipale et al. 2000; cited from earlier work
Shh signaling [4] = assay: Shh-LIGHT2 assay for Hh pathway activation (Gli-dependent luciferase reporter); type: cell-based, mouse
[5] = Keeler and Binns 1965; Berman et al. 2002; cited from earlier work
SmoA1 = molecular target: T6, SmoA1 (Mus musculus, UniProt P56726, W539L); assay: Photoaffinity labeling of SmoA1 with 125I-labeled PA-cyclopamine; type: binding; settings: Cos-1 cells, SmoA1-Myc3
T6 construct: expressed in transfected cells; host or cells: Cos-1
Procedure: Photoaffinity labeling of Smo proteins: Cos-1 cells were cultured in 6-well plates and transfected with Smo-Myc3 or SmoA1-Myc3 expression vectors (1 μg/well). Two days after transfection, each well was incubated with 1 μCi of ^125I-labeled PA-cyclopamine (˜0.5 nM final concentration) in phenol red-free DMEM containing 0.5% bovine calf serum and various concentrations of the indicated compounds for 10 minutes at 37° C. Solvent vehicle alone (MeOH or DMSO) was used as a control in these experiments. PA-cyclopamine was then activated by 254 nm light (80,000 μJ/cm^2; Stratalinker UV-cross-linker) at room temperature. The cells were immediately chilled on ice, removed from the plates by scraping, and then directly lysed and sonicated in SDS-PAGE loading buffer. Total cell lysates were separated by SDS-PAGE and transferred to nitrocellulose for analysis by autoradiography and western blotting with an anti-Myc monoclonal antibody (9E10; Santa Cruz Biotechnology).

T1 sequence (P56726 33-793): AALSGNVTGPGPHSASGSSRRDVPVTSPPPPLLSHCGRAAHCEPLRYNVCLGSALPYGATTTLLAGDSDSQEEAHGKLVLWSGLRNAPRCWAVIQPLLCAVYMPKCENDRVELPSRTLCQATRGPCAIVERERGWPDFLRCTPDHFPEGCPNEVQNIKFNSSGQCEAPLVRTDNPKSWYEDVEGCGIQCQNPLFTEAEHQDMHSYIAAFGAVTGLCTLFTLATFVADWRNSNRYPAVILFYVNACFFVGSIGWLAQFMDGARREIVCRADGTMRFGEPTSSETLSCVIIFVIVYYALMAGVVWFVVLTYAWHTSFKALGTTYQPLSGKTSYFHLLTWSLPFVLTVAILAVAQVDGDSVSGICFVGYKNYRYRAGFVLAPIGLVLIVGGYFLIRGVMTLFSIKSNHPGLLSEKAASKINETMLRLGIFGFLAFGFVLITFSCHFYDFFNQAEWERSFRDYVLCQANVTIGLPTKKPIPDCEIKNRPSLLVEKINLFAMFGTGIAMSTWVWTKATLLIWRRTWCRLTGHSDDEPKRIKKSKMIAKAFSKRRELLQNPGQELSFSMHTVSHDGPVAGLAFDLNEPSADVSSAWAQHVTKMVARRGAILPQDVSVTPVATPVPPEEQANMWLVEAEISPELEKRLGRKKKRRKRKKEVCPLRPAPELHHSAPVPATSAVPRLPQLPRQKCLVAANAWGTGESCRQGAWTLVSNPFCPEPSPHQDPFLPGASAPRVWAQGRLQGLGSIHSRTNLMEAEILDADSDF
T4 sequence (P56726 33-793 W539L): as the sequence (P56726 33-793) above, with W507L counted along it
T6 sequence (P56726 33-793 W539L): as the sequence (P56726 33-793) above, with W507L counted along it
T5 sequence (P56726 33-793 W539L): as the sequence (P56726 33-793) above, with W507L counted along it
T2 sequence (P56726 with tags, fused parts or gaps DEL68-182): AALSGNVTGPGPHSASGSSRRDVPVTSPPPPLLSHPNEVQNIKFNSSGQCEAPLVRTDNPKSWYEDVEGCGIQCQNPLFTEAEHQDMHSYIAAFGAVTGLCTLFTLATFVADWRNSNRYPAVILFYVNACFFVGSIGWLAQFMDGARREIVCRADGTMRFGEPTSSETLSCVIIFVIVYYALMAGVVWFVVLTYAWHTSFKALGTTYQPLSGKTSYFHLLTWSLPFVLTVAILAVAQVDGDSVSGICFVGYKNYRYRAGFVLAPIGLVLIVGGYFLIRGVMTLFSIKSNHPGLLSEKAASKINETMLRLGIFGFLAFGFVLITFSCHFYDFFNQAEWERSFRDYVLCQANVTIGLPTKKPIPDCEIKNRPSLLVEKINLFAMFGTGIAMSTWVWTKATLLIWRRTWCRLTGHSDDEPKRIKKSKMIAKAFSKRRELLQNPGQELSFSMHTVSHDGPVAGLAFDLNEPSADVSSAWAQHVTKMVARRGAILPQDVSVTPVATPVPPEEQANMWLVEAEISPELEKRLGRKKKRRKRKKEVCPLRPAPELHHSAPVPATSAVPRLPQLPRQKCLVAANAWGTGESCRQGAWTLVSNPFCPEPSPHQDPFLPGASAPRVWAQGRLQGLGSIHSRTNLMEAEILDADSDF

CC1=C2C[C@H]3[C@@H](CC=C4CC(=O)CC[C@@]43C)[C@@H]2CC[C@]12O[C@@H]1C[C@H](C)CN(CCNC(=O)CCCCCNC(=O)CCc3ccccc3)[C@H]1[C@H]2C [KAAD-cyclopamine]
inhibition of BODIPY-cyclopamine binding to cells expressing wildtype Smo (Smo [1]; 150 nM KAAD-cyclopamine): inhibited | Kd (Smo [1]; competition of 5 nM BODIPY-cyclopamine binding, flow cytometry, Cos-1 cells, read-out: apparent dissociation constant (Kd), KAAD-cyclopamine/Smo complex): 23 nM | inhibition of BODIPY-cyclopamine binding to cells expressing SmoΔCRD (SmoΔCRD): inhibited | inhibition of BODIPY-cyclopamine binding to cells expressing SmoΔCT (SmoΔCT): inhibited | competition of PA-cyclopamine labeling of Smo-Myc3 (Smo [2]; 1.5 μM KAAD-cyclopamine, Cos-1 cells): inhibited | ER-localization of SmoA1-GFP (SmoA1-GFP; 10 μM): reversed | shift in SmoA1 glycosylation state (endo H) (SmoA1-Myc3): partial conversion of SmoA1 to an endo H-resistant form | IC50 (Shh signaling [3]): 20 nM

CNC1CCC(N(Cc2cccc(-c3ccncc3)c2)C(=O)c2sc3ccccc3c2Cl)CC1 (stereo not drawn) [SAG]
ER-localization of SmoA1-GFP (SmoA1-GFP; 1 μM): reversed

CC1=C2C[C@H]3[C@@H](CC=C4C[C@@H](O)CC[C@@]43C)[C@@H]2CC[C@]12O[C@@H]1C[C@H](C)CN[C@H]1[C@H]2C [cyclopamine, reference compound]
IC50 (Shh signaling [4]; Mus musculus, Shh Light2, read-out: IC50, inhibition of Shh signaling): 300 nM | observable toxicity in treated animals [5]: absence of observable toxicity

PA-cyclopamine
IC50 (Shh signaling [4]; Shh-LIGHT2 mouse cultured cell assay, read-out: IC50, inhibition of Shh signaling): 150 nM | photoaffinity labeling of Smo-Myc3 (two forms) (Smo [2]; Cos-1 cells transiently transfected, upon photoactivation): readily labeled | photoaffinity labeling of endogenous mouse Smo (Smo [2]; live NTH-3T3 cells, light activation): did not detectably label | photoaffinity cross-linking of SmoA1 (SmoA1): unable to efficiently cross-link
